In patent US20190270778A1, “Cyclic Peptides As C5a Receptor Antagonists” (priority 2016, published 2019):
Numbered stars: 1 amine (or outer) side, 2 acyl side, 3 side chain; on linkers, the order of the positions; unused ones are H or OH. Bridge positions count the residues as written; N and C are the ends. Square brackets hold non-standard residues; d marks the D form. Peptide text beside a SMILES is read from it. * marks the point of attachment. X2 = O=C([C@@H](C[C@H]1CC[C@@H](O)CC1)N[*:1])[*:2]; X1 = CN(CC(=O)O)[C@@H](Cc1ccccc1)C(=O)*; Hyp = O=C(O)[C@@H]1C[C@@H](O)CN1; Orn = NCCC[C@H](N)C(=O)O

Experiments:
C5a receptor [1] = target: T1, C5a receptor (Homo sapiens, UniProt P21730); assay: HWB CD11b expression assay (C5a-challenged granulocytes, flow cytometry); assay type: cell-based
T1 construct: endogenous in cells; host or cells: leukocytes/granulocytes in freshly drawn whole blood of healthy volunteers
T1 sequence (P21730 1-350): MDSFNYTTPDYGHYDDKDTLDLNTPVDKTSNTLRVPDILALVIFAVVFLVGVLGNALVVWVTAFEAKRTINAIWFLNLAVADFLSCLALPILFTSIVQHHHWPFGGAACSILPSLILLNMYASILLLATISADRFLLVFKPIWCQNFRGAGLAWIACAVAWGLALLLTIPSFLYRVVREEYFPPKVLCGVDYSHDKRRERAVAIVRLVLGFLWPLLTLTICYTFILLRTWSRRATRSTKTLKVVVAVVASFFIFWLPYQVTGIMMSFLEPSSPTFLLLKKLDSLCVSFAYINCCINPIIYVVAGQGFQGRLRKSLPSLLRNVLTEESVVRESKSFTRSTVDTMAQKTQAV
Procedure: HWB was collected from healthy, non-medicated volunteers into BD Vacutainer® blood collection tubes with K2EDTA as an anticoagulant. HWB was aliquoted (85 μL/well) in 96-well, deep-well, V-bottom plates and incubated at 37° C. for 30 minutes. Test compounds (5 μL/well) were added to HWB and incubated at 37° C. for 30 minutes. Anti-human CD11b antibody conjugated with APC (BD Biosciences) was added to HWB (5 μL/well) and incubated at 37° C. for additional 30 minutes. HWB was then challenged with human C5a (final 1 nM) for 30 minutes at 37° C. Samples were treated with warm 1× Lyse/Fix buffer (BD Biosciences) to terminate activation and further incubated at 37° C. for 20 minutes to lyse red blood cells. Assay plates were centrifuged at 300×g for 5 minutes, supernatant was aspirated, and cells were washed once with PBS containing 0.5% FBS. Washed cells were resuspended in PBS containing 0.5% FBS and subjected to flow cytometric analysis using an LSRFortessa equipped with a HTS plate loader (BD Biosciences). The granulocyte population was gated for analysis of MF of CD11b staining using FACSDiva version 6.2 (BD Biosciences). Data from 11 compound concentrations (singlicate at each concentration) was normalized as a percentage of control based on the formula:
% of Control=100×(A−B)/(C−B)
where A is MF from wells containing test compound and C5a, B is MF from wells without C5a (background MF from unstimulated samples) and C is MF from wells containing only C5a (maximum MF). Inhibition curves and IC50 values (test compound concentrations which produce 50% inhibition) were determined using the Prism version 5 software (GraphPad). HWB was also stimulated with 11 different concentrations of C5a to construct a responsive curve and to obtain EC50 value (the concentration of C5a that gives half-maximal response) and curve slope using the Prism version 5 software. Kb (nM) was then calculated using the equation described by Leff and Dougal (TIPS 1993 14:110-112).

C5a receptor [2] = target: T1, C5a receptor; assay: HWB oxidative burst assay (C5a-induced, luminol chemiluminescence); assay type: cell-based
Procedure: Inhibition of oxidative burst activity was determined in HWB primed with TNF-α and stimulated with C5a. C5a-induced oxidative burst response (generation of reactive oxygen species) was then detected in the presence of luminol as a chemiluminescent signal.
On the day of assay, HWB was collected from a healthy, non-medicated volunteer into tubes containing 3.8% sodium citrate (final sodium citrate concentration in HWB is 0.38%) and stored in a 37° C. water bath until use (no longer than 60 minutes).
To start the assay, TNF-α was added to HWB to a final concentration of 1.0 nM and 68 μL of this HWB/TNF-α mix was transferred to each well of a 384-well white Optiplate (assay plate). 4.0 μL of various concentrations of test agent were then added to the assay plate and mixed twice gently by aspirating up and down. The assay plate was then placed on a thermoshaker (JITTERBUG-4) and incubated at 37° C. (without shaking). After 60 minutes, C5a (Complement Technology) prepared in luminol (Sigma) was added to the assay plate and mixed twice gently by aspirating up and down. The plate was then placed in a ViewLux 1430 Microplate Imager (Perkin Elmer). After 5 minutes, oxidative burst activity was determined with the ViewLux by measuring luminol-enhanced whole blood chemiluminescence. Final assay conditions were 1.5 mM HEPES pH 7.5, 0.015% BSA, 15% HBSS, 0.85 ng/mL TNFα, 1.0 mM Luminol, C5a 20 nM, 76.5% HWB, 0.15% DMSO and various concentrations of test agent.
The percent (%) effect at each concentration of test agent was then calculated based on and relative to the amount of signal that was produced by positive (i.e. full inhibition of C5a induced oxidative burst) and negative (i.e. completely uninhibited C5a induced oxidative burst) control wells contained within each assay plate. The concentration and % effect values for test agents were plotted and the concentration of test agent required for 50% effect (IC50) was determined with a four-parameter logistic dose response equation (BioBook; IDBS). Kb (nM) was then calculated (BioBook; IDBS) using the equation described by Leff and Dougal (TIPS 1993 14:110-112).

| SMILES | Kb (C5a receptor [1]) [nM] | Kb (C5a receptor [2]) [nM] | Kb (C5a receptor [1]; human whole blood challenged with human C5a 1 nM, granulocyte CD11b mean fluorescence, Kb calculated from IC50 (Leff and Dougal), read-out: CD11b, Kb) [nM] | Kb (C5a receptor [2]; human whole blood primed with TNF-α, stimulated with C5a 20 nM, Kb calculated from IC50 (Leff and Dougal), read-out: Oxidative burst, Kb) [nM] |
| --- | --- | --- | --- | --- |
| N=C(N)NCCC[C@@H]1NC(=O)[C@H](Cc2c[nH]c3ccccc23)NC(=O)[C@@H](C[C@H]2CC[C@@H](O)CC2)NC(=O)[C@@H]2C[C@@H](O)CN2C(=O)[C@@H](NC(=O)[C@H](Cc2ccccc2)NCC(=O)O)CCCNC1=O [Example 1, ((S)-1-(((3R,6S,9S,15S,19R,20aS)-6-((1H-indol-3-yl)methyl)-9-(3-guanidinopropyl)-19-hydroxy-3-(((1s,4S)-4-hydroxycyclohexyl)methyl)-1,4,7,10,16-pentaoxoicosahydropyrrolo[1,2-a][1,4,7,10,13]pentaazacyclooctadecin-15-yl)amino)-1-oxo-3-phenylpropan-2-yl)glycine] | 13.1 | 1.6 | – | – |
| N=C(N)NCCC[C@@H]1NC(=O)[C@H](Cc2c[nH]c3ccccc23)NC(=O)[C@@H](C[C@H]2CC[C@@H](O)CC2)NC(=O)[C@@H]2C[C@@H](OCC(=O)O)CN2C(=O)[C@@H](NC(=O)[C@H](Cc2ccccc2)NCC(=O)O)CCCNC1=O [Example 2, 2-(((3R,6S,9S,15S,19R,20aS)-6-((1H-indol-3-yl)methyl)-15-((S)-2-((carboxymethyl)amino)-3-phenylpropanamido)-9-(3-guanidinopropyl)-3-(((1s,4S)-4-hydroxycyclohexyl)methyl)-1,4,7,10,16-pentaoxoicosahydropyrrolo[1,2-a][1,4,7,10,13]pentaazacyclooctadecin-19-yl)oxy)acetic Acid] | 28.8 | 3 | – | – |
| Cc1cnn(C[C@@H]2NC(=O)[C@@H](C[C@H]3CC[C@@H](O)CC3)NC(=O)[C@@H]3C[C@@H](O)CN3C(=O)[C@@H](NC(=O)[C@H](Cc3ccccc3)NCC(=O)O)CCCNC(=O)[C@H](CCCNC(=N)N)NC2=O)c1 [Example 3, ((S)-1-(((3R,6S,9S,15S,19R,20aS)-9-(3-guanidinopropyl)-19-hydroxy-3-(((1s,4S)-4-hydroxycyclohexyl)methyl)-6-((4-methyl-1H-pyrazol-1-yl)methyl)-1,4,7,10,16-pentaoxoicosahydropyrrolo[1,2-a][1,4,7,10,13]pentaazacyclooctadecin-15-yl)amino)-1-oxo-3-phenylpropan-2-yl)glycine] | 212 | 21.6 | – | – |
| COc1ccc2[nH]cc(C[C@@H]3NC(=O)[C@@H](C[C@H]4CC[C@@H](O)CC4)NC(=O)[C@@H]4C[C@@H](O)CN4C(=O)[C@@H](NC(=O)[C@H](Cc4ccccc4)NCC(=O)O)CCCNC(=O)[C@H](CCCNC(=N)N)NC3=O)c2c1 [Example 4, ((S)-1-(((3R,6S,9S,15S,19R,20aS)-9-(3-guanidinopropyl)-19-hydroxy-3-(((1s,4S)-4-hydroxycyclohexyl)methyl)-6-((5-methoxy-1H-indol-3-yl)methyl)-1,4,7,10,16-pentaoxoicosahydropyrrolo[1,2-a][1,4,7,10,13]pentaazacyclooctadecin-15-yl)amino)-1-oxo-3-phenylpropan-2-yl)glycine] | 53.8 | 3 | – | – |
| N=C(N)NCCC[C@@H]1NC(=O)[C@H](Cc2c[nH]c3ncccc23)NC(=O)[C@@H](C[C@H]2CC[C@@H](O)CC2)NC(=O)[C@@H]2CCCN2C(=O)[C@@H](NC(=O)[C@H](Cc2ccccc2)NCC(=O)O)CCCNC1=O [Example 5, ((S)-1-(((3R,6S,9S,15S,20aS)-6-((1H-pyrrolo[2,3-b]pyridin-3-yl)methyl)-9-(3-guanidinopropyl)-3-(((1s,4S)-4-hydroxycyclohexyl)methyl)-1,4,7,10,16-pentaoxoicosahydropyrrolo[1,2-a][1,4,7,10,13]pentaazacyclooctadecin-15-yl)amino)-1-oxo-3-phenylpropan-2-yl)glycine] | – | – | 300 | 27.3 |
| CN(CC(=O)O)[C@@H](Cc1ccccc1)C(=O)N[C@H]1CCCNC(=O)[C@H](CCCNC(=N)N)NC(=O)[C@H](Cc2c[nH]c3ccccc23)NC(=O)[C@@H](C[C@H]2CC[C@@H](O)CC2)NC(=O)[C@@H]2C[C@@H](O)CN2C1=O [Example 11, N—((S)-1-(((3R,6S,9S,15S,19R,20aS)-6-((1H-indol-3-yl)methyl)-9-(3-guanidinopropyl)-19-hydroxy-3-(((1s,4S)-4-hydroxycyclohexyl)methyl)-1,4,7,10,16-pentaoxoicosahydropyrrolo[1,2-a][1,4,7,10,13]pentaazacyclooctadecin-15-yl)amino)-1-oxo-3-phenylpropan-2-yl)-N-methylglycine] (X1-[Orn][Hyp][X2]WR; lactam 1-C) | – | 1.2 | – | – |
| [2H]c1cc([2H])cc(C[C@H](NCC(=O)O)C(=O)N[C@H]2CCCNC(=O)[C@H](CCCNC(=N)N)NC(=O)[C@H](Cc3c[nH]c4ccccc34)NC(=O)[C@@H](C[C@H]3CC[C@@H](O)CC3)NC(=O)[C@@H]3C[C@@H](O)CN3C2=O)c1 [Example 13, ((S)-1-(((3R,6S,9S,15S,19R,20aS)-6-((1H-indol-3-yl)methyl)-9-(3-guanidinopropyl)-19-hydroxy-3-(((1s,4S)-4-hydroxycyclohexyl)methyl)-1,4,7,10,16-pentaoxoicosahydropyrrolo[1,2-a][1,4,7,10,13]pentaazacyclooctadecin-15-yl)amino)-1-oxo-3-(3,5-dideuterophenyl)propan-2-yl)glycine] | – | 1.3 | – | – |
| N=C(N)NCCC[C@@H]1NC(=O)[C@H](Cc2c[nH]c3ccccc23)NC(=O)[C@@H](C[C@H]2CC[C@@H](O)CC2)NC(=O)[C@@H]2C[C@@H](NCC(=O)O)CN2C(=O)[C@@H](NC(=O)[C@H](Cc2ccccc2)NCC(=O)O)CCCNC1=O [Example 14, ((31R,6S,9S,15S,19R,20aS)-6-((1H-indol-3-yl)methyl)-15-((S)-2-((carboxymethyl)amino)-3-phenylpropanamido)-9-(3-guanidinopropyl)-3-(((1s,4S)-4-hydroxycyclohexyl)methyl)-1,4,7,10,16-pentaoxoicosahydropyrrolo[1,2-a][1,4,7,10,13]pentaazacyclooctadecin-19-yl)glycine] | – | 1.7 | – | – |
| COc1ccc2c(C[C@@H]3NC(=O)[C@@H](C[C@H]4CC[C@@H](O)CC4)NC(=O)[C@@H]4C[C@@H](O)CN4C(=O)[C@@H](NC(=O)[C@H](Cc4ccccc4)NCC(=O)O)CCCNC(=O)[C@H](CCCNC(=N)N)NC3=O)c[nH]c2c1 [Example 15, ((S)-1-(((3R,6S,9S,15S,19R,20aS)-9-(3-guanidinopropyl)-19-hydroxy-3-(((1s,4S)-4-hydroxycyclohexyl)methyl)-6-((6-methoxy-1H-indol-3-yl)methyl)-1,4,7,10,16-pentaoxoicosahydropyrrolo[1,2-a][1,4,7,10,13]pentaazacyclooctadecin-15-yl)amino)-1-oxo-3-phenylpropan-2-yl)glycine] | – | 2.2 | – | – |
